Assay results reported in patent publication US12497394B2, “Fused-cyclic pyrazolone formamide compound and preparation method therefor, pharmaceutical composition and use thereof” (SHANGHAI INSTITUTE OF MATERIA MEDICA, CHINESE ACADEMY OF …, priority 2018, dated 2025).
Values joined by “and” are separate entries in the source; they are usually repeats but may differ in a detail not shown here. Equal values may be shown once.

Experiments:
[1] = target: T1, receptor tyrosine kinase AXL (Homo sapiens, UniProt P30530); assay: Enzyme activity of receptor tyrosine kinase AXL (ELISA); format: biochemical; settings: for inhibition at 0.01 µM: 10 nM; for inhibition at 0.01 µM / inhibition at 0.1 µM / inhibition at 1 µM / inhibition at 0.001 µM: read-out: AXL activity Inhibitory rate(%); for inhibition at 0.1 µM: 100 nM; for inhibition at 1 µM: 1000 nM; for AXL activity (in words): at 1000, 100, and 10 nM; for inhibition at 0.001 µM: 1 nM
T1 construct: 50 μL of AXL kinase domain recombinant protein diluted in reaction buffer was added to start the reaction; made in house; host or cells: insect cells (baculovirus expression system)
T1 sequence (P30530 536-807 limits assumed): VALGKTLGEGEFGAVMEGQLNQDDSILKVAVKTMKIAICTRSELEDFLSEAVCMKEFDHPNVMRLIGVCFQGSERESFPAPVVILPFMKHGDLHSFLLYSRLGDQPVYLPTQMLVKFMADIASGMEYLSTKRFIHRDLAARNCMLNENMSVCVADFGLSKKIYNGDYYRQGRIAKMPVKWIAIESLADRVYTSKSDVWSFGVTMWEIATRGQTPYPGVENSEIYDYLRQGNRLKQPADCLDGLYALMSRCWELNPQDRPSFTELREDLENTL
Experimental: Detection method: Enzyme-linked immunosorbent assay (ELISA)
Tested receptor tyrosine kinase: AXL
The full-wavelength microplate reader for experiment reading was a product of Molecular Device, model: SpectraMax 190; the experiment water was distilled water produced by Sinopharm Group.
Compound preparation: The compounds were centrifuged at 12,000 g for 5 min, and DMSO was added to prepare a 10^−2M stock solution, vortexed evenly and sonicated for 10 min for use, and stored at −40° C. During the test, the compound was diluted from the stock solution to 100 times the tested concentration with DMSO (the DMSO concentration in the system was 1%).
1. […] Discard the liquid from the well. The plate was washed and washed three times with T-PBS (0.1% Tween-20 in potassium-free PBS, 200 μL/well) for 5 minutes each time.
2. 49 μL of ATP solution diluted with reaction buffer (50 mM HEPES pH 7.4, 50 mM MgCl2, 0.5 mM MnCl2, 0.2 mM Na3VO4, 1 mM DTT) was added to each well, and […] of the tested compound was added to each well, and then 50 μL of AXL kinase domain recombinant protein diluted in reaction buffer was added to start the reaction. Two control wells without ATP were added in each experiment. (100 rpm) Reacted in 37° C. shaker for 1 hour. Discard the liquid from the well, and the plate was washed with T-PBS for three times.
3. […] Discard the liquid from the well, and the plate was washed with T-PBS for three times.
4. The horseradish peroxidase-labeled goat anti-mouse second antibody dilution (antibody diluted 1:2000 with BSA 5 mg/mL in T-PBS), 100 μL/well, and reacted in 37° C. shaker for 0.5 hours. Discard the liquid from the well, and the plate was washed with T-PBS for three times.
6. The reaction was quenched with 50 μL/well 2M […], and read at 490 nm using a tunable microplate reader VERSAmax.
The IC50 values were obtained by four-parameter regression analysis using the software supplied with the microplate reader.

[2] = target: receptor tyrosine kinase c-Met (Homo sapiens, UniProt P08581); assay: In vitro c-Met kinase inhibitory activity; format: biochemical; settings: two values per compound; for inhibition at 0.01 µM / inhibition at 0.1 µM / inhibition at 0.001 µM: read-out: c-Met Inhibitory rate (%)
Chain of receptor tyrosine kinase c-Met (P08581 25-1390): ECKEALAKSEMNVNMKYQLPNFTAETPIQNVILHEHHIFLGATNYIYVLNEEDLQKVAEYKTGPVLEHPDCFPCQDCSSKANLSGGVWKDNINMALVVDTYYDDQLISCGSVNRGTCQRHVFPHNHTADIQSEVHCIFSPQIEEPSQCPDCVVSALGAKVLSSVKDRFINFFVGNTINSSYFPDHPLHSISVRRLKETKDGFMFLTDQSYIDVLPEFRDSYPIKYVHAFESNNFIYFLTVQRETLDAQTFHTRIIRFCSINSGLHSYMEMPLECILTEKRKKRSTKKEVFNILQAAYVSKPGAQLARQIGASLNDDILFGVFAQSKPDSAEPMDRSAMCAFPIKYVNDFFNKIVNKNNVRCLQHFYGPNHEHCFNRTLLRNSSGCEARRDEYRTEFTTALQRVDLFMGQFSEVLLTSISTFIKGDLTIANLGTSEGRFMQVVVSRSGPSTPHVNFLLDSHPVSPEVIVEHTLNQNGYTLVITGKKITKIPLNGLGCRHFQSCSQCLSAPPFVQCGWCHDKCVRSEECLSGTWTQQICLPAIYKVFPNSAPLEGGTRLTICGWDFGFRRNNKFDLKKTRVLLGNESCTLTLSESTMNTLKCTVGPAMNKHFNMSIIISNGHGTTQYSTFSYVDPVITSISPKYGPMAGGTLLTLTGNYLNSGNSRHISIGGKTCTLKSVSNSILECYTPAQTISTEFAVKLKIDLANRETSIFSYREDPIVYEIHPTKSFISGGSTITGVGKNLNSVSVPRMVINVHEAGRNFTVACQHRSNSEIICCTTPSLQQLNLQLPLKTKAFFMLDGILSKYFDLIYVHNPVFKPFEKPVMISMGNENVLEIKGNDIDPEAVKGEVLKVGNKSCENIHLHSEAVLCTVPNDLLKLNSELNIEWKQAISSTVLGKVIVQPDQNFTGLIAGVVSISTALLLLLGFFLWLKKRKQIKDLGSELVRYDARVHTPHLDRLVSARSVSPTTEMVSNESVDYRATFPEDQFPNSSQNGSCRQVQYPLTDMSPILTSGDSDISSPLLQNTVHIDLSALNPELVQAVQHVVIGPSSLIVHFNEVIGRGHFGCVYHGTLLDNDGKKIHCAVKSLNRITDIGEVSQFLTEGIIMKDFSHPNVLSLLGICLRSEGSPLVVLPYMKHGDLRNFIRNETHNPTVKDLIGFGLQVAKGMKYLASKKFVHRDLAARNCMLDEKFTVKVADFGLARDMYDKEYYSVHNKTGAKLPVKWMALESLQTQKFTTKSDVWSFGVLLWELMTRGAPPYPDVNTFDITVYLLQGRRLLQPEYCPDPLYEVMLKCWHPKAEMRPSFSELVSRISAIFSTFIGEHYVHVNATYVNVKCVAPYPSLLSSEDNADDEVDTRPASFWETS
Text: Experimental Example 3: Study of In Vitro c-Met Kinase Inhibitory Activity
Since the screening results of 369 kinase profiles of compound DC621044 has shown that the compound has a certain inhibitory activity on c-Met. We further screened some compounds for their inhibitory activity on c-Met kinase.

Row | Compound | inhibition at 0.01 µM [1] | inhibition at 0.1 µM [1] | inhibition at 1 µM [1] | AXL activity (in words) [1] | inhibition at 0.001 µM [1] | c-Met Inhibitory rate (%) ([2]; 1 nM, 0.001 µM) | c-Met Inhibitory rate (%) ([2]; 10 nM, 0.01 µM) | inhibition at 0.01 µM ([2]; 10 nM) | c-Met Inhibitory rate (%) ([2]; 100 nM, 0.1 µM) | inhibition at 0.1 µM ([2]; 100 nM) | inhibition at 0.001 µM ([2]; 1 nM)
1 | COc1nc(OC)nc(Oc2ccc(NC(=O)c3c4n(n(-c5ccccc5)c3=O)CCCC4)cc2)n1 [DC621003, N-(4-((4,6-dimethoxy-1,3,5-triazine-2-yl)oxy)phenyl)-2-oxo-1-phenyl-1,2,4,5,6,7-hexahydro[1,5-a]pyridine-3-formamide, reference compound] | -15.5% | 2.8% | -7.2% | almost no activity | – | – | – | – | – | – | –
2 | Cc1nccc(Oc2ccc(NC(=O)c3c4n(n(-c5ccccc5)c3=O)CCCC4)cc2)n1 [DC621005, N-(4-((2-methylpyrimidine-4-yl)oxy)phenyl)-2-oxo-1-phenyl-1,2,4,5,6,7-hexahydro[1,5-a]pyridine-3-formamide, reference compound] | -14.6% | 18.3% | -7.8% | almost no activity | – | – | – | – | – | – | –
3 | O=C(Nc1ccc(Oc2ncnc3cc4c(cc23)OCCOCCOCCO4)c(F)c1)c1c2n(n(-c3ccccc3)c1=O)CCCC2 [DC621061, N-(3-fluoro-4-((7,8,10,11,13,14-hexahydro-[1,4,7,10]tetraoxacyclododecane [2,3-g]quinazolin-4-yl)oxy)phenyl)-2-oxo-1-phenyl-1,2,4,5,6,7-hexahydropyrazolo[1,5-a]pyridine-3-formamide] | 66.7% | 91.8% | – | – | 22.9% | 35.7% and 61.1% | 62.4% | 51.1% | 95.7% | 94.7% | –
4 | O=C(Nc1ccc(Oc2ncnc3cc4c(cc23)OCCOCCOCCO4)c(Cl)c1)c1c2n(n(-c3ccccc3)c1=O)CCCC2 [DC621062, N-(3-chloro-4-((7,8,10,11,13,14-hexahydro-[1,4,7,10]tetraoxacyclododecane [2,3-g]quinazolin-4-yl)oxy)phenyl)-2-oxo-1-phenyl-1,2,4,5,6,7-hexahydropyrazolo[1,5-a]pyridine-3-formamide] | 43% | 70.6% | – | – | 6.3% | 35.9% and 68.6% | 78.1% and 98.9% | – | 100% | 99.8% | –
5 | O=C(Nc1ccc(Oc2ncnc3cc4c(cc23)OCCOCCOCCO4)c(F)c1)c1c2n(n(-c3ccccc3F)c1=O)CCCC2 [DC621065, N-(3-fluoro-4-((7,8,10,11,13,14-hexahydro-[1,4,7,10]tetraoxacyclododecane [2,3-g]quinazolin-4-yl)oxy)phenyl)-1-(2-fluorophenyl)-2-oxo-1,2,4,5,6,7-hexahydropyrazolo[1,5-a]pyridine-3-formamide] | 45.8% | 95% | – | – | 29.6% | – | – | – | – | – | –
6 | O=C(Nc1ccc(Oc2ncnc3cc4c(cc23)OCCOCCOCCO4)c(Cl)c1)c1c2n(n(-c3ccc(F)cc3)c1=O)CCCC2 [DC621068, N-(3-chloro-4-((7,8,10,11,13,14-hexahydro-[1,4,7,10]tetraoxacyclododecane[2,3-g]quinazolin-4-yl)oxy)phenyl)-1-(4-fluorophenyl)-2-oxo-1,2,4,5,6,7-hexahydropyrazolo[1,5-a]pyridine-3-formamide] | 55.1% | 85.8% | – | – | 16.5% | 46.0% | 85.9% | 71.2% | – | 100% | 34%
7 | COCCOc1cc2ncnc(Oc3ccc(NC(=O)c4c5n(n(-c6ccccc6)c4=O)CCCC5)cc3Cl)c2cc1OCCOC [DC621070, N-(4-((6,7-bis(2-methoxyethoxy)quinazolin-4-yl)oxy)-3-chlorophenyl)-2-oxo-1-phenyl-1,2,4,5,6,7-hexahydropyrazolo[1,5-a]pyridine-3-formamide] | 60.5% | 91.1% | – | – | 2.4% | – | – | – | – | – | –

Continued, values first:

Row | inhibition at 0.01 µM [1] | inhibition at 0.1 µM [1] | inhibition at 1 µM [1] | AXL activity (in words) [1] | inhibition at 0.001 µM [1] | c-Met Inhibitory rate (%) ([2]; 1 nM, 0.001 µM) | c-Met Inhibitory rate (%) ([2]; 10 nM, 0.01 µM) | inhibition at 0.01 µM ([2]; 10 nM) | c-Met Inhibitory rate (%) ([2]; 100 nM, 0.1 µM) | inhibition at 0.1 µM ([2]; 100 nM) | inhibition at 0.001 µM ([2]; 1 nM) | Compound
8 | 47.4% | 83.4% | – | – | 30.8% | – | – | – | – | – | – | O=C(Nc1ccc(Oc2ncnc3cc4c(cc23)OCCOCCOCCO4)c(Cl)c1)c1c2n(n(-c3cc(F)ccc3F)c1=O)CCCC2 [DC621064, 1-(2,5-difluorophenyl)-N-(3-chloro-4-((7,8,10,11,13,14-hexahydro-[1,4,7,10]tetraoxacyclododecane [2,3-g]quinazolin-4-yl)oxy)phenyl)-2-oxo-1,2,4,5,6,7-hexahydropyrazolo[1,5-a]pyridine-3-formamide]
9 | 52.1% | 75.9% | – | – | 34.8% | 34.3% | 68.4% | 67.6% | 96.6% | 95.8% | 24.1% | COCCOc1cc2ncnc(Oc3ccc(NC(=O)c4c5n(n(-c6ccccc6)c4=O)CCCC5)cc3C(F)(F)F)c2cc1OCCOC [DC621072, N-(4-((6,7-bis(2-methoxyethoxy)quinazolin-4-yl)oxy)-3-trifluoromethylphenyl)-2-oxo-1-phenyl-1,2,4,5,6,7-hexahydropyrazolo[1,5-a]pyridine-3-formamide]
10 | 76.4% | 100% | – | – | 35.5% | – | 58.3% | 68.8% | 93.5% | 97.1% | – | COCCOc1cc2ncnc(Oc3ccc(NC(=O)c4c5n(n(-c6cc(F)ccc6F)c4=O)CCCC5)cc3Cl)c2cc1OCCOC [DC621080, 1-(2,5-difluorophenyl)-N-(4-((6,7-bis(2-methoxyethoxy)quinazolin-4-yl)oxy)-3-chlorophenyl)-2-oxo-1,2,4,5,6,7-hexahydropyrazolo[1,5-a]pyridine-3-formamide]
11 | 34.9% | 79.2% | – | – | 16.3% | – | – | – | – | – | – | COc1cc2ncnc(Oc3ccc(NC(=O)c4c5n(n(-c6cc(F)ccc6F)c4=O)CCCC5)cc3C(F)(F)F)c2cc1OC [DC621081, 1-(2,5-difluorophenyl)-N-(4-((6,7-dimethoxyquinazoline-4-yl)oxy)-3-trifluoromethylphenyl)-2-oxo-1,2,4,5,6,7-hexahydropyrazolo[1,5-a]pyridine-3-formamide]
12 | 62.9% | 92.7% | – | – | 21.1% | – | – | – | – | – | – | COCCOc1cc2ncnc(Oc3ccc(NC(=O)c4c5n(n(-c6ccccc6F)c4=O)CCCC5)cc3Cl)c2cc1OCCOC [DC621090, N-(4-((6,7-bis(2-methoxyethoxy)quinazolin-4-yl)oxy)-3-chlorophenyl)-1-(2-fluorophenyl)-2-oxo-1,2,4,5,6,7-hexahydropyrazolo[1,5-a]pyridine-3-formamide]
13 | 61% | 78% | – | – | 4.8% | 16.8% | 53.1% | 71.6% | 89.8% | 94.2% | 25.3% | COCCOc1cc2ncnc(Oc3ccc(NC(=O)c4c5n(n(-c6ccccc6F)c4=O)CCCC5)cc3C(F)(F)F)c2cc1OCCOC [DC621092, N-(4-((6,7-bis(2-methoxyethoxy)quinazolin-4-yl)oxy)-3-trifluoromethylphenyl)-1-(2-fluorophenyl)-2-oxo-1,2,4,5,6,7-hexahydropyrazolo[1,5-a]pyridine-3-formamide]
